{"source": "paper PMC3639985", "about": "“Differential Ligand Binding Affinities of Human Estrogen Receptor-α Isoforms” (PLoS ONE, 2013)", "key": {"palmitoylated ER66": {"tested_on": "palmitoylated ER66", "experiment": "Native gel electrophoresis / Western blot of palmitoylated ER66 in eukaryotic cell-free expression system", "format": "biochemical, human", "details": "2-bromopalmitate 100 µM"}, "palmitoylated ER46": {"tested_on": "palmitoylated ER46", "experiment": "Native gel electrophoresis / Western blot of palmitoylated ER46 in eukaryotic cell-free expression system", "format": "biochemical, human", "details": "2-bromopalmitate 100 µM"}, "ER36": {"target": "ER36", "design": "method as in PMID 20197310", "details": "previous studies; cited from earlier work"}, "human ER66": {"target": "T1, human ER66 (Homo sapiens, UniProt P03372)", "T1 sequence (P03372 1-595)": "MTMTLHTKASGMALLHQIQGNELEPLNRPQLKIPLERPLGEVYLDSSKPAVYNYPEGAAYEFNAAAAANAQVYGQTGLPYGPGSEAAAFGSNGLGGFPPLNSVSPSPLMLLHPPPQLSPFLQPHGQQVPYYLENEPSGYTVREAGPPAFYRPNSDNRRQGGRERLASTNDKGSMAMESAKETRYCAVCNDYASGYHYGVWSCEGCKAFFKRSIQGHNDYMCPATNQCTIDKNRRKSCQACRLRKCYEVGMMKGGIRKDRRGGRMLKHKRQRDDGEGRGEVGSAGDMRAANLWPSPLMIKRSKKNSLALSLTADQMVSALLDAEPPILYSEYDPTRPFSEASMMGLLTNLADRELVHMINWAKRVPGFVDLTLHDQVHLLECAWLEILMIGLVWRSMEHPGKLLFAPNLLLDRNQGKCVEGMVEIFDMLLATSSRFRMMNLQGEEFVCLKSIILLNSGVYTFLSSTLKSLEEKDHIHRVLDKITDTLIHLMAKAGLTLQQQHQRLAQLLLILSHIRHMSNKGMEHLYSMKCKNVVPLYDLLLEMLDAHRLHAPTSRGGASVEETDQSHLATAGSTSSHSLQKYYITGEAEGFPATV", "experiment": "Competitive [3H]-17β-estradiol ligand binding assay, ER66"}, "human ER46": {"target": "T2, human ER46 (Homo sapiens, UniProt P03372)", "T2 sequence (P03372 1-422 isoform P03372-3)": "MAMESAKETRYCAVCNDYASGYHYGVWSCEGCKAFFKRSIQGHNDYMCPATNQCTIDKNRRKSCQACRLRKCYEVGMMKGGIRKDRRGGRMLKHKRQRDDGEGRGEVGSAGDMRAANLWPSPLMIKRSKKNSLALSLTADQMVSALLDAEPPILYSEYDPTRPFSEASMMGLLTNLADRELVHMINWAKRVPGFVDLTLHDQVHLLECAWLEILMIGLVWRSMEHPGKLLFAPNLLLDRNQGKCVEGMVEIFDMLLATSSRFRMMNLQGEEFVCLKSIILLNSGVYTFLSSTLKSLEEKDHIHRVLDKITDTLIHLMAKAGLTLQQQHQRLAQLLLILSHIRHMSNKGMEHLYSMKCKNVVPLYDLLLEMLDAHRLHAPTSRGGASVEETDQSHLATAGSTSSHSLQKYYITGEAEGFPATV", "experiment": "Competitive [3H]-17β-estradiol ligand binding assay, ER46"}, "ERα over ERβ": {"tested_on": "ERα over ERβ", "details": "cited from earlier work"}, "[1]": {"details": "ratio of IC50 values of 17β-estradiol and compound, 17β-estradiol set at 100"}}, "note": "Where two headings read alike, the source gives them in different places.", "data": [{"compound": "CCCCCCCCCCCCCCC(Br)C(=O)O", "note": "(stereo not drawn) [2-bromopalmitate, 2-bromohexadecanoic acid]", "values": [{"measurement": "expression of palmitoylated ER66", "setting": "palmitoylated ER66", "result": "abolished"}, {"measurement": "expression of palmitoylated ER46", "setting": "palmitoylated ER46", "result": "abolished"}]}, {"compound": "C[C@]12CC[C@@H]3c4ccc(O)cc4CC[C@H]3[C@@H]1CC[C@@H]2O", "note": "[17β-estradiol]", "values": [{"measurement": "Kd", "setting": "ER36", "result": 0.0022, "unit": "µM"}]}, {"compound": "O=c1c(-c2ccc(O)cc2)coc2cc(O)ccc12", "note": "[Daidzein, daidzein]", "values": [{"measurement": "RBA ER66", "setting": "human ER66; [1]", "result": 0.003}, {"measurement": "RBA ER46", "setting": "human ER46; [1]", "result": 0.002}]}, {"compound": "Oc1ccc(-c2c(-c3ccccc3)nn3c(C(F)(F)F)cc(C(F)(F)F)nc23)cc1", "note": "[PHTPP, 4-[2-phenyl-5,7-bis(trifluoromethyl)pyrazolo[1,5-a]pyrimidin-3-yl]phenol]", "values": [{"measurement": "IC50", "setting": "human ER66", "result": 1.33, "unit": "µM"}, {"measurement": "RBA ER66", "setting": "human ER66; [1]", "result": 0.003}, {"measurement": "IC50", "setting": "human ER46", "result": 3.33, "unit": "µM"}, {"measurement": "RBA ER46", "setting": "human ER46", "result": 0.001}]}, {"compound": "CCCc1c(-c2ccc(O)cc2)nn(-c2ccc(O)cc2)c1-c1ccc(O)cc1", "note": "[PPT, propylpyrazole triol]", "values": [{"measurement": "RBA ER66", "setting": "human ER66; [1]", "result": 42052}, {"measurement": "RBA ER46", "setting": "human ER46; [1]", "result": 23016}]}, {"compound": "methyl-piperidino-pyrazole dihydrochloride [MPP]", "values": [{"measurement": "RBA ER66", "setting": "human ER66", "result": 0.305}, {"measurement": "RBA ER46", "setting": "human ER46", "result": 0.498}, {"measurement": "higher affinity for ER46 when compared to ICI 182,780", "setting": "human ER46", "result": "four-fold"}, {"measurement": "selectivity for ERα over ERβ", "setting": "ERα over ERβ", "result": 200, "unit": "fold"}]}]}
